# In patent US20250170089A1, “ANTIMICROBIAL AMINO ESTERS” (THE HONG KONG POLYTECHNIC UNIVERSITY, priority 2023, published 2025):
# Tests used:
# [1] = Dynamic light scattering (DLS) and zeta-potential of self-assembled nanoparticles; assay type: physicochemical
# From the text: The dynamic light scattering (DLS) and zeta-potential indicate that […] assembles into nanoparticles with an average size of around 50-200 nm (FIG. 5) and the surface potential of the generated nanoparticle can be +2.15 mV, which means the nanoparticle is positive charged and the hydrophilic -NH2 groups are probably distributed on the outer surfaces.
# [2] = Skin irritation according to ISO 10993-10:2010; conditions: concentration as high as 3.9 mg/mL
# microbes = test: Rapid bactericidal test (shaking method, ASTM E2149 13a); assay type: cell-based; conditions: Ala12 diluted to 10 mg/mL with phosphate buffer, contact time 10 mins
# Procedure: The Ala12 was diluted to 10 mg/mL with phosphate buffer. The shaking method (see the ASTM standard E2149 13a 2015) was used to detect their antibacterial activity, wherein the PBS group was used as a blank control. The contact time of bacteria treated with Ala12 is 10 mins.
# [3] = test system: methicillin-resistant Staphylococcus aureus (MRSA); test: MIC against methicillin-resistant Staphylococcus aureus; assay type: cell-based
# Candida albicans = test: MIC against fungi (Candida albicans); assay type: cell-based
# [4] = Skin sensitization according to ISO 10993-10:2010; conditions: concentration as high as 3.9 mg/mL
smiles,measurement,setting,value
CCCCCCCCCCCCOC(=O)C(C)N (stereo not shown) [Ala12],surface potential of the generated nanoparticle (zeta-potential),[1],+2.15 mV
same,average size of nanoparticles,"[1]; DLS, FIG. 5",50-200 nm
same,skin irritation,[2],completely free
same,time within which the amino ester kills microbes,microbes,≤ 10 min
same,MIC,[3],390 μg/m
same,MIC,Candida albicans,390 μg/m
same,skin sensitization,[4],completely free
